Laboratory results taken from patent US12054485B2, “Substituted imidazoquinolines” (BIONTECH SE, priority 2017, dated 2024).
Read-outs that look alike come from different tables or passages of the source.

Legend:
Format in all cases: cell-based
Human PBMCs = assay: IFN-α induction by TLR agonists in human PBMCs (Luminex)
Experimental: 1) IFN-α Induction Assay—IFN-α induction by TLR Agonists in Human PBMCs
Abbreviations: BSA=bovine serum albumine; PBS=phosphate buffer pH 7.4; PE=phycoerythrin; EDC=1-ethyl-3-(3-dimethylaminopropyl)carbodiimide hydrochloride.
Materials and Devices: Bio Plex 200 Luminex device, and BioPlex Manager software; MultiScreen Filter Plates (Millipore, MABVN1250); low binding reaction vials 1.5 ml (Sarstedt, 72.706.600); Activation Buffer: 0.1M Na-dihydrogen phosphate, 0.1M Di-Na hydrogen phosphate pH 6.2; Sulfo-NHS (N-hydroxysulfosuccinimide) solution: 50 mg/ml in water (freshly prepared); EDC solution: 50 mg/ml in water (freshly prepared); Coupling Buffer: PBS; Washing Buffer: PBS+0.05% Tween20; Blocking Buffer: PBS+10 mg/ml BSA+0.05% sodium azide; Assay Buffer: PBS+10 mg/ml BSA;
Other materials and devices (pipets, reaction vessels, shaker, etc.) were standard lab equipment; water was MilliQ grade quality, buffers were sterile filtered before use.
(Pre-)Incubation of Cells:
In each well of a 96-well U-bottom plate 200,000 PBMCs were pre-incubated in medium (RPMI1640-Gibco #61870-044+10% FBS+1% L-glutamine) for 5 hours at 37° C. and 5% CO2 before the compounds of the present invention or controls were added, respectively. Upon addition of compounds of the present invention or controls, the cells are incubated for another 24 h at 37° C. and 5% CO2.
Luminex assay, Step 1: Coupling of antibody to beads: • transfer a suspension (beads are stored in buffer as provided by manufacturer) of about 5 million MicroPlex Microspheres (=beads) into a low binding reaction vial • centrifuge bead suspension for 1 min at 10,000 g, discard supernatant and resuspend pellet in 160 μl Activation Buffer, repeat once • add 20 μl Sulfo-NHS solution and 20 μl EDC solution, vortex • incubate for 20 min in the absence of light • centrifuge bead suspension for 1 min at 10,000 g, discard supernatant and resuspend pellet in 500 μl Coupling Buffer, repeat once • add capture antibody (CaptureAK eBioscience #BMS160, 5 μg per 1 Mio beads) • incubate 2 h at RT in the absence of light while swaying • centrifuge bead suspension for 1 min at 10,000 g, discard supernatant and resuspend pellet in 500 μl Washing Buffer, repeat once • centrifuge bead suspension for 1 min at I0,000 g, discard supernatant and resuspend pellet in 100 μl Blocking Buffer
Luminex assay, Step 2: Measurement • add 100 μlAssay Buffer into each filter plate well (seal any unused wells with adhesive tape), then remove buffer • add about 2,000 beads per well per analyte (per analyte, a different bead type with distinct fluorescence color is used), suspended in […] of Assay Buffer • remove buffer and wash twice with 100 μl Washing Buffer per well • per well, add 50 μl sample solution from the (pre-)incubation step (cell supernatant), or Standard (IFN-α standard eBioscience #BMS216MST—concentration gradient, highest standard concentration 2500 pg/ml) or Assay Buffer (as blanks) • shake plate • incubate plate for 2 h at RT in the absence of light, while swaying the plate • wash three times with 100 μl Washing Buffer per well • add 25 μl antibody detection mix (DetectionAK eBioscience #BMS1016BT diluted 1:1000) in Assay Buffer per well, then vortex plate • incubate plate for 1 h at RT in the absence of light, while swaying the plate • wash three times with 100 μl Washing Buffer per well • add 50 μl Streptavidin/PE (diluted 1:200 in Assay Buffer) per well, then vortex plate • incubate plate for 10 min at RT in the absence of light, while swaying the plate • wash three times with 100 μl Washing Buffer per well • add 100 μl Assay Buffer per well, then vortex plate • start Luminex measurement according to manufacturer's instructions, measuring at least 50 beads per well per analyte
The compounds were tested at 8 different concentrations (1 μM, 0.3 μM, 0.1 μM, 0.03 μM, 0.01 μM 0.003 μM, 0.001 μM, 0.0003 μM) using a half-logarithmic dilution. […]

human TLR7 = biological target: T1, human TLR7 (Homo sapiens, UniProt Q9NYK1); assay: TLR7 reporter gene assay (HEK-Blue-hTLR7, NFkB/AP-1 inducible SEAP); conditions: for EC50: HEK-Blue-hTLR7
T1 construct: host or cells: HEK-Blue-hTLR7
T1 sequence (Q9NYK1 27-1049): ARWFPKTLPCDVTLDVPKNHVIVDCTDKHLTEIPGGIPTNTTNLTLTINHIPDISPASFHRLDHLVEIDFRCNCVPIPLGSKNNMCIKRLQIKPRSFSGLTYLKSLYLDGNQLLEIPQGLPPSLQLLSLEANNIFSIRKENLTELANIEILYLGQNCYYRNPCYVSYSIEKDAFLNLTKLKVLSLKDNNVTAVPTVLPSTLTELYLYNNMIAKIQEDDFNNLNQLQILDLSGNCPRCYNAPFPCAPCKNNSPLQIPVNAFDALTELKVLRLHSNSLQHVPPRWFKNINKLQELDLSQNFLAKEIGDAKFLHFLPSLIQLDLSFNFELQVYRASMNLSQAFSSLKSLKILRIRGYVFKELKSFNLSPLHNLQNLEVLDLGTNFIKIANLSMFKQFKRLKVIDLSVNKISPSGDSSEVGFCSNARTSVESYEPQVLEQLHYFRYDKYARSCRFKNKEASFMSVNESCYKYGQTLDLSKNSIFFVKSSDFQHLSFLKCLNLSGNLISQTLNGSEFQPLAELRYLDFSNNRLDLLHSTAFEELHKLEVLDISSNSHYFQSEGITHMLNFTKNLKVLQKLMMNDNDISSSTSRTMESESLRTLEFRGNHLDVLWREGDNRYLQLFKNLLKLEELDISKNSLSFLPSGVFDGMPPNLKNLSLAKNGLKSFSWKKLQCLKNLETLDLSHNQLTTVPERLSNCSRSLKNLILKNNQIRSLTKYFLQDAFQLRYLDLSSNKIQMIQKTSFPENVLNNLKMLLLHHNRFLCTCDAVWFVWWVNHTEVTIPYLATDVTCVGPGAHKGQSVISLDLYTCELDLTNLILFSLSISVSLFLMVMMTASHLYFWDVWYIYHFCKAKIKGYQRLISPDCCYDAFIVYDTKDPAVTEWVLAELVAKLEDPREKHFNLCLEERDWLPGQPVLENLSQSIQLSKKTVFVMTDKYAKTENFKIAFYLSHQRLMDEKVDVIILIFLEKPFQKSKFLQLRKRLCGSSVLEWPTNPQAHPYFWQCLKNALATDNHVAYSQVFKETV
Experimental: (§1) 2) TLR Stimulation Assay:
(§2) Compounds are tested for stimulation of human TLR7 and TLR8, respectively, via reporter gene expression analyzed in a cell line stably transfected with human TLR7 and TLR8, respectively, and coexpressing an NFkB/AP-1 inducible SEAP reporter gene. Stimulation with a TLR ligand leads to NFkB/AP-1 activation and upregulation and secretion of SEAP, which can be measured in the supernatant with QuantiBlue™ detection system (InvivoGen).
Cell lines used were either HEK-Blue-hTLR7 (InvivoGen #hkb-htlr7) or HEK-Blue-hTLR8 (InvivoGen #hkb-htlr8). Cells were cultured following manufacturer's instructions.
Assay: • prepare cell suspensions of each cell line with Nv=0.11×10^6 cells/ml in medium (DMEM 4.5 g/l Glucose, 2-4 mM L-glutamine+10% FBS) without antibiotics (Nv=number of living cells) • add 180 μl of the suspensions per well of a 96 well flat bottom cell culture plates (coster, #3506) • incubate the plates overnight at 37° C. and 5% CO2 • prepare samples and controls as solutions in DMSO: R848, CL075 (TLR 7/8 agonist by InvivoGen) and Guardiquimod each to a final concentration of 10 μM, ODN2006 (InvivoGen) and ODN2216 (InvivoGen) each to a final concentration 2 μM; • compounds of the invention are applied in dilution series to final concentrations of 30, 10, 3, 1, etc. μM • add 20 μl diluted compounds and controls (see above) to the wells • incubate plates for 20-24 h at 37° C. and 5% CO2 • prepare QuantiBlue™ (InvivoGen #10H19-MM) solution, following manufacturer's instructions: solubilize the powder of one pouch in 100 ml MilliQ grade water, heat at 37° C. in a water bath for about 30 min, filter the solution with a paper filter • add 100 μl prepared QuantiBlue™ solution in each well of a 96 well plate with flat bottom • add […] cell culture supernatant from the induced cells per well • incubate plates for 1 to 1.5 h at 37° C. (until an intense blue color has developed) • read OD at 620 nm with a plate reader • calculate EC50 from data points

human TLR8 = biological target: T2, human TLR8 (Homo sapiens, UniProt Q9NR97); assay: TLR8 reporter gene assay (HEK-Blue-hTLR8, NFkB/AP-1 inducible SEAP)
T2 construct: host or cells: HEK-Blue-hTLR8
T2 sequence (Q9NR97 27-1041): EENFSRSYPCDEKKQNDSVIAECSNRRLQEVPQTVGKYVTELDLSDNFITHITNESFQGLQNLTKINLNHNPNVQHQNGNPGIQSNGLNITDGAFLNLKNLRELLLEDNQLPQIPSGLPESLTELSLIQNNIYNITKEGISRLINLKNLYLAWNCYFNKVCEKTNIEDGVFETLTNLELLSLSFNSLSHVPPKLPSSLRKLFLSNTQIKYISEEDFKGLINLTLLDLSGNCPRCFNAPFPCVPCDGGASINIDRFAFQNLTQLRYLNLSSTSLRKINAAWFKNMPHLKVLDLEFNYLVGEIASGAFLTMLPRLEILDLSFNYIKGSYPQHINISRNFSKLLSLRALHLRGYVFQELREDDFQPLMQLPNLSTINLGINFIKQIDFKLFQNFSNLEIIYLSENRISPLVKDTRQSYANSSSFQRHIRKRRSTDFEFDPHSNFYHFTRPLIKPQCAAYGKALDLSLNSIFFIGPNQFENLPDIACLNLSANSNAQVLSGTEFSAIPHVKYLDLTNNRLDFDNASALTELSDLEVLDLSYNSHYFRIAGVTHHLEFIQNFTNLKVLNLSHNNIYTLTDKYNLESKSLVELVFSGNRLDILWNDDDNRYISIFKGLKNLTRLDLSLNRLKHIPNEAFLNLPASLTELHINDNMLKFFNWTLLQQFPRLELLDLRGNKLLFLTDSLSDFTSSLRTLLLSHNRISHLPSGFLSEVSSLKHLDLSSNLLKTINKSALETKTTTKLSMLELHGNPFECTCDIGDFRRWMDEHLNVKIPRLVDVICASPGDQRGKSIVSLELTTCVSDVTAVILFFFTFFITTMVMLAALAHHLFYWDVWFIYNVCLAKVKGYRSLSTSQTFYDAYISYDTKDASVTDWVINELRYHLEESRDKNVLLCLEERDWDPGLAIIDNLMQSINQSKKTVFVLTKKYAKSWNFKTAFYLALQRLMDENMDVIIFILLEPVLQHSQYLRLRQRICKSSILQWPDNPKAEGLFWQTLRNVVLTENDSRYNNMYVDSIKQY
Experimental: as §1, §2
Cell lines used were either HEK-Blue-hTLR7 (InvivoGen #hkb-htlr7) or HEK-Blue-hTLR8 (InvivoGen #hkb-htlr8). Cells were cultured following manufacturer's instructions. […]

[1] = comparative compounds with 2-methyltetrahydrofuran-3-yl at R3, Table 2
[2] = 24 h incubation, maximum of bell-shaped curve over 0.0003-1 μM, Table 1

SMILES	Maximum IFN-α release (Human PBMCs; [1]) [pg/mL]	Maximum IFN-α release (Human PBMCs; [2]) [pg/mL]	further results
CCc1nc2c(N)nc3ccccc3c2n1CCCCN(C(C)=O)C1CCOC1C (centres unmarked) [1′]	930		
CCNCc1nc2c(N)nc3ccccc3c2n1CCCCN(C(C)=O)C1CCOC1C (centres unmarked) [3′]	360		
CCNCc1nc2c(N)nc3ccccc3c2n1CCCCN(C(N)=O)C1CCOC1C (centres unmarked) [4′]	290		
COCCc1nc2c(N)nc3ccccc3c2n1CCCCN(C(C)=O)C1CCOC1C (centres unmarked) [5′]	330		
CCc1nc2c(N)nc3ccccc3c2n1CCCCN(C(N)=O)C1CCOCC1 [Example 2, 1-(4-(4-Amino-2-ethyl-1H-imidazo[4,5-c]quinolin-1-yl)butyl)-1-(tetrabydro-2H-pyran-4-yl)urea]		1250	
CCNCc1nc2c(N)nc3ccccc3c2n1CCCCN(C(C)=O)C1CCOCC1 [Example 3, N-(4-(4-Amino-2-((ethylamino)methyl)-1H-imidazo[4,5-c]quinolin-1-yl)butyl)-N-(tetrahydro-2H-pyran-4-yl)acetamide]		1070	
CCNCc1nc2c(N)nc3ccccc3c2n1CCCCN(C(N)=O)C1CCOCC1 [Example 4, 1-(4-(4-Amino-2-((ethylamino)methyl)-1H-imidazo[4,5-c]quinolin-1-yl)butyl)-1-(tetrahydro-2H-pyran-4-yl)urea]		920	
COCCc1nc2c(N)nc3ccccc3c2n1CCCCN(C(C)=O)C1CCOCC1 [Example 5, N-(4-(4-Amino-2-(2-methoxyethyl)-1H-imidazo[4,5-c]quinolin-1-yl)butyl)-N-(tetrahydro-2H-pyran-4-yl)acetamide]		880	
COCCc1nc2c(N)nc3ccccc3c2n1CCCCN(C(N)=O)C1CCOCC1 [Example 6, 1-(4-(4-Amino-2-(2-methoxyethyl)-1H-imidazo[4,5-c]quinolin-1-yl)butyl)-1-(tetrahydro-2H-pyran-4-yl)urea]		1850	
CCc1nc2c(N)nc3ccccc3c2n1CCCCN(C(C)=O)C1CCOC1C (centres unmarked) [example III, 3-{acetyl[4-(4-amino-2-ethyl-1H-imidazo[4,5-c]quinolin-1-yl)butyl]amino}-2,5-anhydro-1,3,4-trideoxypentitol]			maximum IFN-α release relative to present Example 1 (Human PBMCs; % of the maximum IFN-α release of Example 1): about 50%; EC50 (human TLR7; read-out: EC50 in the TLR7 reporter gene assay): 0.44 µM; EC50 in TLR7 reporter gene assay relative to Example 1 (human TLR7; fold higher EC50 than Example 1): ten-fold higher
CCc1nc2c(N)nc3ccccc3c2n1CCCCNC1CCOCC1 [example V, 2-ethyl-1-(4-((tetrahydro-2H-pyran-4-yl)amino)butyl)-1H-imidazo[4,5-c]quinolin-4-amine]			EC50 (human TLR7; highest concentration without any activity, read-out: activity towards TLR7 (no activity up to a concentration of)): > 30 µM; activity towards TLR8 in the TLR8 reporter gene assay (human TLR8): displayed activity
